Test results taken from ChEMBL document CHEMBL3098115, “Drug discovery considerations in the development of covalent inhibitors” (2014).

How the values were obtained:
Assay type in all cases: functional
Mus musculus [1] = assay: Ex vivo inhibition of EST31 in C57BL/6 mouse kidney at 1 mg/kg, ip after 1 hr relative to vehicle-treated control; settings: C57BL/6, Kidney, route intraperitoneal
Mus musculus [2] = assay: Ex vivo inhibition of EST31 in C57BL/6 mouse liver at 1 mg/kg, ip after 1 hr relative to vehicle-treated control; settings: C57BL/6, Liver, route intraperitoneal
Mus musculus [3] = assay: Ex vivo inhibition of CE6 in C57BL/6 mouse kidney at 1 mg/kg, ip after 1 hr relative to vehicle-treated control; settings: C57BL/6, Kidney, route intraperitoneal
Mus musculus [4] = assay: Ex vivo inhibition of CE6 in C57BL/6 mouse liver at 1 mg/kg, ip after 1 hr relative to vehicle-treated control; settings: C57BL/6, Liver, route intraperitoneal

Measured: inhibition in vivo at 1 mg/kg

C#CCCCCCCCCCNC(=O)Oc1cccc(-c2cccc(C(N)=O)c2)c1
< 20%: Mus musculus [1] | Mus musculus [2] | Mus musculus [3] | Mus musculus [4]
